Data set [1] has as its target truncated RocR (RocR^trunc, central domain) (Bacillus subtilis, UniProt P38022). The note with it: 15 mM ATP, 15 mM MgCl2, pH 7.5, room temperature, no effector.
A further data set deals with T1, RocB (Bacillus subtilis, UniProt P39635).
T1 sequence (P39635 1-566): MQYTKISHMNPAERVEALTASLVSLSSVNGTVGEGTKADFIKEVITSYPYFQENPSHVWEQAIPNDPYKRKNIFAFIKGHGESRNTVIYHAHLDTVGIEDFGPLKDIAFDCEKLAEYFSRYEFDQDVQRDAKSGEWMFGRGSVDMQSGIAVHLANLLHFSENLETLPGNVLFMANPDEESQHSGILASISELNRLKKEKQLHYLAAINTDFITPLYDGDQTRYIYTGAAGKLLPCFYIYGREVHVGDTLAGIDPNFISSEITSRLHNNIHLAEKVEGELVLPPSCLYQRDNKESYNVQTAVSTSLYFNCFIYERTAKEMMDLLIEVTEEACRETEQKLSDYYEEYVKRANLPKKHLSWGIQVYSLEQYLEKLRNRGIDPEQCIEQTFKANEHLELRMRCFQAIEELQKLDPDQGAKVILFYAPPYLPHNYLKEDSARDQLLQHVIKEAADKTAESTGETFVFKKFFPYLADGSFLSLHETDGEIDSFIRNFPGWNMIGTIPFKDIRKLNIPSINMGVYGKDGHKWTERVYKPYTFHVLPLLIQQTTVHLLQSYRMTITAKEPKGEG
The data set is described as follows: coupled RocB-RocD assay, P5C-o-aminobenzaldehyde complex at […] nm. It counts as biochemical. The note with it: 2 mM MnCl2, PBS, 25 °C, 1 µM RocD, 10 mM 2-oxoglutarate, 80 µM PLP.

The data set “dynamic light scattering” deals with the molecule itself. The data set is described as follows: dynamic light scattering.

The stoichiometry N is the number of molecules, sites or subunits per partner or assembly.

Regarding `Nc1ncnc2c1ncn2[C@@H]1O[C@H](COP(=O)(O)OP(=O)(O)OP(=O)(O)O)[C@@H](O)[C@H]1O` [ATP], the kobs result in data set [1] was “the truncated protein was active irrespective of the presence of potential effector molecules”.
In the case of `NC(=O)NCCC[C@H](N)C(=O)O` [citrulline], the KM at RocB is listed as 7.355 mM l^-1.

B1: RocR, transcription activator of the roc genes (6xHis-RocR) (natural protein, Bacillus subtilis, UniProt P38022 1-461, looked up)
chain: MVKDSEFLTLVFQSILDEIDVGLHVVDEHGNTIVYNNKMMQIEDMEKHDVLNKNLMDVFMFSKQQDSTLVQALQEGKTIKNVKQSYFNNKGQEITTINHTYPIVQDGKIRGAVEIAKDVTKLERLIRENMNKKGSTTYTFDSILGTSPAIQDVIENAKRATRTSSSVLLAGETGTGKELFAQSIHNGSDRSGGPFISQNCAALPDSLVESILFGTKKGAFTGAVDQPGLFEQAHGGTLLLDEINSLNLSLQAKLLRALQERKIRRIGSTKDTPIDVRIIATMNEDPIDAIAGERMRKDLYYRLSVVTLIIPPLRERKEDILLLASEFIQKNNHLFQMNVEHISDDVKQFFLSYDWPGNIRELEHMIEGAMNFMTDEQTITASHLPYQYRMKIKPADIPEPETPRHQPAADLKEKMESFEKYVIENVLRKHGHNISKAAQELGISRQSLQYRLKKFSHSSNE
Turning to B1, in the data set “dynamic light scattering”, the “stoichiometry N” value is around 2.

(Values after article PMC10404663 (The Journal of Biological Chemistry, 2023).)
